{"source": "patent EP2072621A1", "about": "“Solvent tolerant microorganisms” (DSM IP Assets B.V., priority 2007, dated 2009)", "key": {"L. casei ADRIA 85 L121": {"system": "L. casei ADRIA 85 L121", "conditions": "30 degrees C; for Relative growth rate: reference at 0 g/L = 1.00", "procedure": "(§1) MRS medium oxoid (CM0359, Merck KgaA, Germany) was prepared according to manufacturer's instructions and filled out in 50 ml Schott flasks and sterilized at 121 degrees C during 15 minutes. 1 vial of thawed frozen culture was inoculated to 50 ml of this medium and the cultures were subsequently incubated overnight at 30 degrees C standing still or during 2 nights if no clear growth (whitening) had occurred yet. 20 microliter of this culture was inoculated to 180 microliter of microtiter plate (MTP) medium. The pH of this medium was approximately 6.0.\n(§2) After inoculation, every 20 minutes the optical density at 620 nm was measured in the wells of the microtiter plate using a Multiscan Ascent photometer (Thermo Fisher Scientific, Inc.), while the temperature was controlled at 30 degrees C. Total time of measurement was maximally 24 hours. Before measurements were taken, the microtiter plates were shaken for 30 seconds to homogenize any settled biomass.\n(§3) The growth rate was calculated using the exponential phase of the growth curve, based on the optical density measurement. The relative growth rate was calculated using the reference at 0 g/L as 1.00. […] Table 3 Relative growth rate\n(§4) IC50(%) values were determined for the Lactobacilli at 30 degrees C by using a polynomial second order fit through the relative growth rate data and are presented in Table 4. […]"}, "[1]": {"system": "L. casei from commercial rennet", "conditions": "30 degrees C; for Relative growth rate: reference at 0 g/L = 1.00", "procedure": "as §1, §2, §3, §4"}, "[2]": {"system": "L. fructivorans ATCC 8288", "conditions": "30 degrees C; for Relative growth rate: reference at 0 g/L = 1.00", "procedure": "as §1, §2, §3, §4"}, "L. plantarum ATCC 8014": {"system": "L. plantarum ATCC 8014", "conditions": "30 degrees C; for Relative growth rate: reference at 0 g/L = 1.00", "procedure": "as §1, §2, §3, §4"}, "Lactobacilli": {"system": "Lactobacilli", "conditions": "butanol concentration of 2.5 w/v%", "procedure": "as §1, §2, §3, §4"}, "[3]": {"conditions": "polynomial second order fit through the relative growth rate data"}}, "note": "Like-named read-outs stand apart in the source and are kept apart here.", "data": [{"substance": "butanol", "values": [{"measurement": "IC50%", "setting": "L. casei ADRIA 85 L121; [3]", "result": 2.0, "unit": "w/v %"}, {"measurement": "Relative growth rate", "setting": "L. casei ADRIA 85 L121; Butanol concentration 0.5 w/v%", "result": 0.96}, {"measurement": "Relative growth rate", "setting": "L. casei ADRIA 85 L121; Butanol concentration 1 w/v%", "result": 0.89}, {"measurement": "Relative growth rate", "setting": "L. casei ADRIA 85 L121; Butanol concentration 1.5 w/v%", "result": 0.73}, {"measurement": "Relative growth rate", "setting": "L. casei ADRIA 85 L121; Butanol concentration 2.5 w/v%", "result": 0.21}, {"measurement": "IC50%", "setting": "[1]; [3]", "result": 1.9, "unit": "w/v %"}, {"measurement": "Relative growth rate", "setting": "[1]; Butanol concentration 0.5 w/v%", "result": 0.88}, {"measurement": "Relative growth rate", "setting": "[1]; Butanol concentration 1 w/v%", "result": 0.79}, {"measurement": "Relative growth rate", "setting": "[1]; Butanol concentration 1.5 w/v%", "result": 0.68}, {"measurement": "Relative growth rate", "setting": "[1]; Butanol concentration 2.5 w/v%", "result": 0.24}, {"measurement": "IC50%", "setting": "[2]; [3]", "result": 2.1, "unit": "w/v %"}, {"measurement": "Relative growth rate", "setting": "[2]; Butanol concentration 0.5 w/v%", "result": 0.94}, {"measurement": "Relative growth rate", "setting": "[2]; Butanol concentration 1 w/v%", "result": 0.89}, {"measurement": "Relative growth rate", "setting": "[2]; Butanol concentration 1.5 w/v%", "result": 0.78}, {"measurement": "Relative growth rate", "setting": "[2]; Butanol concentration 2.5 w/v%", "result": 0.28}, {"measurement": "IC50%", "setting": "L. plantarum ATCC 8014; [3]", "result": 2.2, "unit": "w/v %"}, {"measurement": "Relative growth rate", "setting": "L. plantarum ATCC 8014; Butanol concentration 0.5 w/v%", "result": 0.97}, {"measurement": "Relative growth rate", "setting": "L. plantarum ATCC 8014; Butanol concentration 1 w/v%", "result": 0.90}, {"measurement": "Relative growth rate", "setting": "L. plantarum ATCC 8014; Butanol concentration 1.5 w/v%", "result": 0.77}, {"measurement": "Relative growth rate", "setting": "L. plantarum ATCC 8014; Butanol concentration 2.5 w/v%", "result": 0.37}, {"measurement": "growth in presence of butanol", "setting": "Lactobacilli", "result": "can still grow"}]}]}
